Measurements: patent US4988687A, “Cephalosporin derivatives, and antibacterial agents” (priority 1986, dated 1991)
Values after ≈ are worked out from the molar mass of the structure shown. Read-outs that look alike come from different tables or passages of the source.

Legend:
E. cloacae Nek 39 = experiment: agar plate dilution method, MIC against E. cloacae Nek 39; type: cell-based; settings: Enterobacter cloacae, NEK39; E. cloacae Nek 39 (lactamase-producing strain); 10^6 CFU/ml, 37° C., 16 hours; read-out: Minimum Inhibitory Concentration (MIC)
Procedure: (§1) The in vitro antibacterial activities of the compounds of the present invention against various microorganisms, were measured by the following agar plate dilution method. One platinum loopfull of each test microorganism incubated overnight in Mueller Hinton broth, was inoculated to Mueller Hinton agar (inoculum size: 10^6 CFU/ml) Such culture media containing various antibiotics in various concentrations were prepared After incubation at 37° C. for 16 hours, the minimum inhibitory concentrations (MIC: μg/ml) were measured. As comparative compounds, cefotaxime, oeftazidime and the compounds disclosed in Example 2 of Japanese Unexamined Patent Publication No. 215690/1985 e.g. sodium 7-[2-(2-aminothiazol-4-yl)-2-ethoxyiminoacetamido]-3-(1-carboxylatemethylpyridinio-4-yl)thiomethyl-3-cephem-4-carboxylate (hereinafter referred to simply as "Reference Example A") were employed.

K. pneumoniae PCI-602 = experiment: agar plate dilution method, MIC against K. pneumoniae PCI-602; type: cell-based; settings: Klebsiella pneumoniae, PCI602, 16 h, read-out: Minimum Inhibitory Concentration (MIC)
Procedure: as §1

A. calcoaceticus No. 4 = experiment: agar plate dilution method, MIC against A. calcoaceticus No. 4; type: cell-based; settings: Acinetobacter calcoaceticus; A. calcoaceticus No. 4; 10^6 CFU/ml, 37° C., 16 hours; read-out: Minimum Inhibitory Concentration (MIC)
Procedure: as §1

Ps. cepacia 23 = experiment: agar plate dilution method, MIC against Ps. cepacia 23; type: cell-based, Pseudomonas cepacia; settings: Burkholderia cepacia, 23, 16 h, read-out: Minimum Inhibitory Concentration (MIC)
Procedure: as §1

C. freundii GN346/16 = experiment: agar plate dilution method, MIC against C. freundii GN346/16; type: cell-based; settings: Citrobacter freundii; C. freundii GN346/16; 10^6 CFU/ml, 37° C., 16 hours; read-out: Minimum Inhibitory Concentration (MIC)
Procedure: as §1

E. coli CSH2 (RK1) = experiment: agar plate dilution method, MIC against E. coli CSH2 (RK1); type: cell-based; settings: Escherichia coli, 16 h, read-out: Minimum Inhibitory Concentration (MIC)
Procedure: as §1

Ps. aeruginosa IFO3445 = experiment: agar plate dilution method, MIC against Ps. aeruginosa IFO3445; type: cell-based; settings: Pseudomonas aeruginosa, read-out: Minimum Inhibitory Concentration (MIC)
Procedure: as §1

E. coli GN5482 = experiment: agar plate dilution method, MIC against E. coli GN5482; type: cell-based; settings: Escherichia coli; E. coli GN5482 (lactamase-producing strain); 10^6 CFU/ml, 37° C., 16 hours; read-out: Minimum Inhibitory Concentration (MIC)
Procedure: as §1

K. oxytoca GN10650 = experiment: agar plate dilution method, MIC against K. oxytoca GN10650; type: cell-based; settings: Klebsiella oxytoca, read-out: Minimum Inhibitory Concentration (MIC)
Procedure: as §1

M. morganii GN5407 = experiment: agar plate dilution method, MIC against M. morganii GN5407; type: cell-based; settings: Morganella morganii; M. morganii GN5407 (lactamase-producing strain); 10^6 CFU/ml, 37° C., 16 hours; read-out: Minimum Inhibitory Concentration (MIC)
Procedure: as §1

K. pneumoniae No. 42 = experiment: agar plate dilution method, MIC against K. pneumoniae No. 42; type: cell-based; settings: Klebsiella pneumoniae, read-out: Minimum Inhibitory Concentration (MIC)
Procedure: as §1

S. marcescens No. 16-2 = experiment: agar plate dilution method, MIC against S. marcescens No. 16-2; type: cell-based; settings: Serratia marcescens, NO.162, 16 h, read-out: Minimum Inhibitory Concentration (MIC)
Procedure: as §1

P. vulgaris HX-19 = experiment: agar plate dilution method, MIC against P. vulgaris HX-19; type: cell-based; settings: Proteus vulgaris, read-out: Minimum Inhibitory Concentration (MIC)
Procedure: as §1

E. cloacae 963 = experiment: agar plate dilution method, MIC against E. cloacae 963; type: cell-based; settings: Enterobacter cloacae; E. cloacae 963; 10^6 CFU/ml, 37° C., 16 hours; read-out: Minimum Inhibitory Concentration (MIC)
Procedure: as §1

Ps. maltophilia GN 12873 = experiment: agar plate dilution method, MIC against Ps. maltophilia GN 12873; type: cell-based, Pseudomonas maltophilia; settings: Stenotrophomonas maltophilia, GN12873; Ps. maltophilia GN 12873 (lactamase-producing strain); 10^6 CFU/ml, 37° C., 16 hours; read-out: Minimum Inhibitory Concentration (MIC)
Procedure: as §1

E. coli NIHJ JC2 = experiment: agar plate dilution method, MIC against E. coli NIHJ JC2; type: cell-based; settings: Escherichia coli, NIHJJC2; E. coli NIHJ JC2; 10^6 CFU/ml, 37° C., 16 hours; read-out: Minimum Inhibitory Concentration (MIC)
Procedure: as §1

S. aureus JS1 = experiment: agar plate dilution method, MIC against S. aureus JS1; type: cell-based; settings: Staphylococcus aureus; S. aureus JS1 (methicilline resistant; lactamase-producing strain); 10^6 CFU/ml, 37° C., 16 hours; read-out: Minimum Inhibitory Concentration (MIC)
Procedure: as §1

S. aureus 209P NIHJ-JC1 = experiment: agar plate dilution method, MIC against S. aureus 209P NIHJ-JC1; type: cell-based; settings: Staphylococcus aureus, 16 h, read-out: Minimum Inhibitory Concentration (MIC)
Procedure: as §1

[1] = test system: sensitive and resistant Gram-positive bacteria and Gram-negative bacteria particularly glucose non-fermentative Gram-negative rods; experiment: antibacterial activity and spectrum (in words); type: cell-based; settings: in vitro
Procedure: as §1

C. freundii GN346 = experiment: agar plate dilution method, MIC against C. freundii GN346; type: cell-based; settings: Citrobacter freundii; C. freundii GN346 (lactamase-producing strain); 10^6 CFU/ml, 37° C., 16 hours; read-out: Minimum Inhibitory Concentration (MIC)
Procedure: as §1

P. vulgaris No. 33 = experiment: agar plate dilution method, MIC against P. vulgaris No. 33; type: cell-based; settings: Proteus vulgaris; P. vulgaris No. 33 (lactamase-producing strain); 10^6 CFU/ml, 37° C., 16 hours; read-out: Minimum Inhibitory Concentration (MIC)
Procedure: as §1

E. coli CSH(RE45) = experiment: agar plate dilution method, MIC against E. coli CSH(RE45); type: cell-based; settings: Escherichia coli, 16 h, read-out: Minimum Inhibitory Concentration (MIC)
Procedure: as §1

S. epidermidis IAM12012 = experiment: agar plate dilution method, MIC against S. epidermidis IAM12012; type: cell-based; settings: Staphylococcus epidermidis, IAM12012, 16 h, read-out: Minimum Inhibitory Concentration (MIC)
Procedure: as §1

S. marcescens IAM 1184 = experiment: agar plate dilution method, MIC against S. marcescens IAM 1184; type: cell-based; settings: Serratia marcescens, IAM1184; S. marcescens IAM 1184; 10^6 CFU/ml, 37° C., 16 hours; read-out: Minimum Inhibitory Concentration (MIC)
Procedure: as §1

Ps. aeruginosa AK 109 = experiment: agar plate dilution method, MIC against Ps. aeruginosa AK 109; type: cell-based; settings: Pseudomonas aeruginosa, read-out: Minimum Inhibitory Concentration (MIC)
Procedure: as §1

M. luteus ATCC9341 = experiment: agar plate dilution method, MIC against M. luteus ATCC9341; type: cell-based; settings: Micrococcus luteus, read-out: Minimum Inhibitory Concentration (MIC)
Procedure: as §1

S. aureus BB5703 = experiment: agar plate dilution method, MIC against S. aureus BB5703; type: cell-based; settings: Staphylococcus aureus, BB5703, 16 h, read-out: Minimum Inhibitory Concentration (MIC)
Procedure: as §1

Ps. aeruginosa AKR17 = experiment: agar plate dilution method, MIC against Ps. aeruginosa AKR17; type: cell-based; settings: Pseudomonas aeruginosa, read-out: Minimum Inhibitory Concentration (MIC)
Procedure: as §1

Row | SMILES | MIC (E. cloacae Nek 39) | MIC (K. pneumoniae PCI-602) | MIC (A. calcoaceticus No. 4) | MIC (Ps. cepacia 23) | MIC (C. freundii GN346/16) | MIC (E. coli CSH2 (RK1)) | MIC (E. coli GN5482) | MIC (M. morganii GN5407) | MIC (S. marcescens No. 16-2) | MIC (E. cloacae 963) | MIC (Ps. maltophilia GN 12873) | MIC (E. coli NIHJ JC2) | MIC (S. aureus JS1) | MIC (S. aureus 209P NIHJ-JC1) | MIC (C. freundii GN346) | MIC (P. vulgaris No. 33) | MIC (E. coli CSH(RE45)) | MIC (S. epidermidis IAM12012) | MIC (S. marcescens IAM 1184) | MIC (S. aureus BB5703) | also measured
1 | CC(=O)Oc1ccc(C(O/N=C(\C(=O)NC2C(=O)N3C(C(=O)[O-])=C(CSc4cc[n+](CC(=O)O)cc4)CSC23)c2csc(N)n2)C(=O)O)cc1OC(C)=O (stereo not drawn) [Example 6, disodium 7-[2-(2-aminothiazol-4-yl)-2-(α-carboxylate-3,4-diacetoxybenzyloxyimino)acetamido]-3-(1-carboxylatemethylpyridinio-4-yl)thiomethyl-3-cephem-4-carboxylate (syn-isomer)] | 0.78 µg/mL | < 0.006 µg/mL | 0.39 µg/mL | 0.025 µg/mL | 0.39 µg/mL | 0.05 µg/mL | 0.39 µg/mL | 0.2 µg/mL | 1.56 µg/mL | 0.39 µg/mL | > 100 µg/mL | 0.2 µg/mL | 25 µg/mL | 1.56 µg/mL | 25 µg/mL | 0.1 µg/mL | 0.05 µg/mL | 3.12 µg/mL | 0.2 µg/mL | 6.25 µg/mL | MIC (Ps. aeruginosa IFO3445; Ps. aeruginosa IFO3445, 10^6 CFU/ml, 37° C., 16 hours): 0.78 µg/mL; MIC (K. oxytoca GN10650; GN10650, 16 h): 0.2 µg/mL; MIC (K. pneumoniae No. 42; NO.42, 16 h): 0.1 µg/mL; MIC (P. vulgaris HX-19; HX19, P. vulgaris HX-19, 10^6 CFU/ml, 37° C., 16 hours): 0.1 µg/mL; antibacterial activities and antibacterial spectrum (in words) [1]: excellent antibacterial activities and a broad antibacterial spectrum; MIC (Ps. aeruginosa AK 109; AK109, Ps. aeruginosa AK 109, 10^6 CFU/ml, 37° C., 16 hours): 0.78 µg/mL; MIC (M. luteus ATCC9341; ATCC9341, 16 h): 3.12 µg/mL; MIC (Ps. aeruginosa AKR17; AKR17, 16 h): 1.56 µg/mL
2 | CO/N=C(\C(=O)N[C@@H]1C(=O)N2C(C(=O)O)=C(COC(C)=O)CS[C@H]12)c1csc(N)n1 [Cefotaxime, cefotaxime, reference compound] | 3.12 µg/mL (≈ 6.85 µM) | < 0.006 µg/mL | 25 µg/mL (≈ 54.9 µM) | 6.25 µg/mL (≈ 13.7 µM) | 0.1 µg/mL (≈ 0.22 µM) | 0.025 µg/mL (≈ 0.0549 µM) | 0.39 µg/mL (≈ 0.856 µM) | 0.1 µg/mL (≈ 0.22 µM) | 12.5 µg/mL (≈ 27.4 µM) | 0.1 µg/mL (≈ 0.22 µM) | > 100 µg/mL | 0.05 µg/mL (≈ 0.11 µM) | 25 µg/mL (≈ 54.9 µM) | 1.56 µg/mL (≈ 3.43 µM) | 12.5 µg/mL (≈ 27.4 µM) | 0.025 µg/mL (≈ 0.0549 µM) | 0.1 µg/mL (≈ 0.22 µM) | 1.56 µg/mL (≈ 3.43 µM) | 0.1 µg/mL (≈ 0.22 µM) | 3.12 µg/mL (≈ 6.85 µM) | MIC (Ps. aeruginosa IFO3445; IFO3445, 16 h): 12.5 µg/mL (≈ 27.4 µM); MIC (K. oxytoca GN10650; K. oxytoca GN10650 (lactamase-producing strain), 10^6 CFU/ml, 37° C., 16 hours): 0.39 µg/mL (≈ 0.856 µM); MIC (K. pneumoniae No. 42; K. pneumoniae No. 42 (lactamase-producing strain), 10^6 CFU/ml, 37° C., 16 hours): 0.05 µg/mL (≈ 0.11 µM); MIC (P. vulgaris HX-19; HX19, 16 h): < 0.006 µg/mL; MIC (Ps. aeruginosa AK 109; AK109, 16 h): 12.5 µg/mL (≈ 27.4 µM); MIC (M. luteus ATCC9341; M. luteus ATCC9341, 10^6 CFU/ml, 37° C., 16 hours): 0.1 µg/mL (≈ 0.22 µM); MIC (Ps. aeruginosa AKR17; Ps. aeruginosa AKR17, 10^6 CFU/ml, 37° C., 16 hours): > 100 µg/mL
